Results from publication PMC11325505, “Nitrogen-Containing Flavonoids—Preparation and Biological Activity” (ACS Omega, 2024).
Converted amounts (≈) assume the structure as drawn.

Tests used:
[1] = system: MRSA 3596; test: Mode of antimicrobial action with erythromycin or gentamicin, ermA- and aadD-positive strain; assay type: cell-based, S. aureus; conditions: for effect (mode of action with erythromycin) / effect (mode of action with gentamicin) / FIC (Fractional Inhibitory Concentration Index): MRSA 3596; for MIC, Gentamicin [1 mg/L] yes / MIC: MRSA 3596 (aadD); for MIC, Gentamicin [1 mg/L] yes: with gentamicin 1 mg/L; for MIC, erythromycin [1 mg/L] yes / MIC, erythromycin [1 mg/L] no: MRSA 3596 (ermA); for MIC, erythromycin [1 mg/L] yes: with erythromycin 1 mg/L; for MIC, erythromycin [1 mg/L] no: without erythromycin, Table 4; for MIC: Staphylococcus aureus, 24 h, read-out: MIC, Gentamicin [1 mg/L] no, without gentamicin, Table S6
Source text: Erythromycin is a macrolide antibiotic that inhibits proteosynthesis by binding to the 50S subunit of the ribosome. In Staphylococcus species, resistance to erythromycin is associated with the presence of methyltransferases (encoded by erm genes) that alter the ribosomal target site. Another typical mechanism of resistance to erythromycin is the presence of an ATP-dependent efflux pump encoded by the msr(A) gene or a major facilitator superfamily (MFS) pump encoded by the lmrS gene. Both efflux pumps reduce the concentration of erythromycin in the cell below the therapeutic dose by transporting it across the membrane to the extracellular space. Another erythromycin resistance gene is the mph(C) gene, the product of which is a phosphotransferase that alters the structure of macrolide antibiotics. To elucidate the mechanism of erythromycin resistance modulation in S. aureus, further tests were performed with the strains MRSA 331 and MRSA 3596, which inactivate erythromycin via a single mechanism (ermC and ermA, respectively). […] Therefore, if the activity was not strain-specific, it would be necessary to consider the effect of the derivatives on this pump (Table 3).
Among the mechanisms of resistance to gentamicin previously described in S. aureus, the presence of enzymes that alter the structure of aminoglycosides is crucial. These enzymes can transfer nucleotides, phosphates, or acetyls to various −OH or −NH2 groups of gentamicin, preventing its subsequent interaction with the cellular target, i.e., the 30S ribosomal subunit. The bifunctional aminoglycoside-modifying enzyme with acetylation and phosphotransferase activities encoded by the gene aac(6’)/aph(2’), 4′,4″ adenyltransferase encoded by the aadD gene, and aminoglycoside O-phosphotransferase encoded by the gene aph(3′) are the most important.[37] […] For this reason, further testing continued using strains MRSA 3596 and MRSA 1584, which inactivate gentamicin only by a single mechanism (aadD and aac(6’)-aph(2’’), respectively).
(§1) Sensitization of multidrug-resistant clinical bacterial strains was performed according to ref[15]. Antibiotic cutoff concentration was chosen according to the European Committee on Antimicrobial Susceptibility Testing (EUCAST, Clinical breakpoints–bacteria, ver. 11.0). The 200 μM concentration of the derivatives was chosen as the highest test concentration. The absorbance detected at 600 nm was then used to estimate the number of viable cells after 24 h of incubation at 37 °C and 120 rpm.
(§2) Experiments were performed with the respective number of replicates indicated in each figure/table. MIC was determined as IC70. Both IC70 and IC50 values were calculated using the following nonlinear regression in the software GraphPad Prism: […]

[2] = system: S. aureus CCM 4223; test: Antibacterial activity, antibiotic-sensitive strain; assay type: cell-based; conditions: Staphylococcus aureus, CCM4223, three repetitions ± SEM
[3] = system: interleukin 6 (IL-6) production by RAW 264.7 stimulated by LPS; test: Anti-inflammatory activity: IL-6 production by LPS-stimulated macrophages; assay type: cell-based, Murine; conditions: for IC50: Mus musculus, RAW264.7, LPS-stimulated RAW 264.7, average of four repetitions ± SEM; for ability to inhibit IL-6 production compared to luteolin, in words: LPS-stimulated macrophages
Method: (§3) The anti-inflammatory activity of flavonoids was evaluated as their ability to decrease the production of signaling molecules that mediate inflammation, such as nitric oxide (NO), tumor necrosis factor (TNF-α), and interleukin 6 (IL-6), in LPS-stimulated macrophages.
(§4) The anti-inflammatory activity of the tested flavonoids was determined as the ability to reduce the production of nitric oxide (NO), tumor necrosis factor (TNF-α), and interleukin 6 (IL-6) by RAW 264.7 stimulated by LPS, as previously described.[39],[40] Briefly, 1 × 10^6 cells/mL was seeded into the 96-well plate (100 μL/well). After 48 h, LPS (100 ng/mL) and the samples (3–100 μM) were added to the MEM medium. After 24 h, the medium was mixed with Griess reagent (0.04 g/mL) at a 1:1 ratio. The absorbance was measured after 15 min at 540 nm. Cell viability was determined using the resazurin assay.
To determine TNF-α levels, cells were precultivated with the tested compounds for 24 h. After 2 h of incubation with LPS, the medium was diluted 1:10 with ELISA diluent. To determine the level of IL-6, cells were cultivated for 6 h with LPS and the tested compounds. Cytokine production was determined using an uncoated ELISA performed according to the manufacturer’s instructions.

[4] = system: nitric oxide (NO) production by RAW 264.7 stimulated by LPS; test: Anti-inflammatory activity: NO production by LPS-stimulated macrophages; assay type: cell-based, Murine; conditions: Mus musculus, RAW264.7; LPS-stimulated RAW 264.7; average of four repetitions ± SEM
Method: as §3, §4

[5] = system: S. aureus MRSA 9; test: Antibacterial activity, multidrug-resistant strain; assay type: cell-based; conditions: Staphylococcus aureus, MRSA; multidrug-resistant strain; three repetitions ± SEM
Method: To evaluate the ability to modulate bacterial resistance, the tested flavonoids themselves cannot exert antimicrobial activity; therefore, the nontoxic concentration was used, as indicated in Table S5. Clinically relevant antibiotics were selected at breakpoint concentrations for susceptibility testing according to the European Committee on Antimicrobial Susceptibility Testing (EUCAST, version 11.0). […] Flavonoids and their derivatives (from 1 μM to the highest nontoxic concentration) were used in combination with the breakpoint concentration of the antibiotics. After coincubation, the minimum inhibitory concentration (MIC) of flavonoids inhibiting the visible growth of bacteria was determined (Table 2).
as §1, §2

[6] = system: RAW 264.7 cells; test: Cellular antioxidant activity (CAA); assay type: cell-based, Murine; conditions: for IC50: average of four repetitions ± standard error of the mean; for change of antioxidant activity compared to the parent compound, in words: CAA in macrophages
Method: To evaluate the antioxidant activity of the prepared derivatives and the respective parent compounds, cellular antioxidant activity (CAA) was measured in macrophages. Compared to other in vitro antioxidant assays, this method provides partial information about the uptake and metabolism of the compounds, because, in this assay, they must first enter the cell to exert antioxidant activity.[31] […] Derivatization of quercetin at C-8 with 4-fluoroaniline (5) increased the antioxidant activity of quercetin by 1.7-fold. […] The concentration of these derivatives required to halve the cellular radicals decreased 1.5-fold compared to luteolin.
Cellular antioxidant capacity was evaluated as previously described.[31],[39] Briefly, 100 μL of RAW 264.7 cells with a density corresponding to 1 × 10^6 cells/mL were split into 96-well plates. After 24 h, cells were washed with PBS, and DMEM supplemented with DCFH-DA (0.0125 mg/mL) was added to each well together with the tested samples in the concentration range of 1.5–200 μM. After 1 h incubation in a CO2 incubator, the medium was replaced with AAPH solution (0.16 mg/mL in PBS), and fluorescence was immediately recorded (ex./em. 485/540 nm) for 2 h in 5 min intervals.

[7] = Mus musculus, RAW264.7, macrophages RAW 264.7

| SMILES | effect (mode of action with erythromycin) [1] | effect (mode of action with gentamicin) [1] | MIC, Gentamicin [1 mg/L] yes [1] [µM] | MIC, erythromycin [1 mg/L] yes [1] [µM] | MIC, erythromycin [1 mg/L] no [1] [µM] | effect (mode of action with erythromycin) ([1]; listed as quercetin) | FIC (Fractional Inhibitory Concentration Index) ([1]; with erythromycin) | FIC (Fractional Inhibitory Concentration Index) ([1]; with gentamicin) | MIC [1] [µM] | IC50 [2] [µM] | IC50 [3] [µM] | IC50 [4] [µM] | IC50 [5] [µM] | IC50 [6, 7] [µM] | IC50 ([6]; macrophages RAW 264.7) [µM] | ability to inhibit IL-6 production compared to luteolin, in words [3] | change of antioxidant activity compared to the parent compound, in words [6] |
| --- | --- | --- | --- | --- | --- | --- | --- | --- | --- | --- | --- | --- | --- | --- | --- | --- | --- |
| O=c1c(O)c(-c2ccc(O)c(O)c2)oc2cc(O)cc(O)c12 [compound 4, quercetin, reference compound] | synergy (Fractional Inhibitory Concentration Index (FIC) < 0.5 indicates synergism) | synergy (Fractional Inhibitory Concentration Index (FIC) < 0.5 indicates synergism) | 54.5 ± 0.6 (≈ 16.5 µg/mL) | 58.6 ± 1.2 (≈ 17.7 µg/mL) | 178.1 ± 2.7 (≈ 53.8 µg/mL) | synergistic activity | 0.33 ± 0.01 | 0.31 ± 0.01 | 178 ± 2.7 (≈ 53.8 µg/mL) | > 200 | 4.7 ± 0.2 | 9.3 ± 0.6 | > 200 | 5.9 ± 0.4 | 5.85 | – | – |
| O=c1cc(-c2ccc(O)c(O)c2)oc2c(Nc3ccccc3)c(O)cc(O)c12 [compound 13, 2-(3,4-Dihydroxyphenyl)-8-(anilino)-5,7-dihydroxy-4H–1-benzopyran-4-one] | – | synergy (Fractional Inhibitory Concentration Index (FIC) < 0.5 indicates synergism) | 23.2 ± 0.4 (≈ 8.75 µg/mL) | – | – | – | – | 0.25 ± 0.01 | 93 ± 0.6 (≈ 35.1 µg/mL) | 50 ± 1.2 | 7.3 ± 0.6 | 29.3 ± 0.1 | 51.3 ± 1.3 | 3.1 ± 0.1 | – | same ability to inhibit IL-6 production as luteolin | – |
| O=c1c(O)c(-c2ccc(O)c(O)c2)oc2c(Nc3ccc(C(F)(F)F)cc3)c(O)cc(O)c12 [compound 8, 2-(3,4-Dihydroxyphenyl)-8-(4-(trifluoromethyl)anilino)-3,5,7-trihydroxy-4H–1-benzopyran-4-one] | synergy (Fractional Inhibitory Concentration Index (FIC) < 0.5 indicates synergism) | synergy (Fractional Inhibitory Concentration Index (FIC) < 0.5 indicates synergism) | 5.7 ± 0.1 (≈ 2.63 µg/mL) | 8.4 ± 1.1 (≈ 3.88 µg/mL) | 37.9 ± 0.1 (≈ 17.5 µg/mL) | – | – | – | 37.9 ± 0.1 (≈ 17.5 µg/mL) | 39.3 ± 1.8 | 35.1 ± 1.6 | 53.3 ± 0.8 | 35.3 ± 0.7 | 11.5 ± 0.3 | – | – | significantly decreased the antioxidant activity |
| O=c1cc(-c2ccc(O)c(O)c2)oc2c(Nc3ccc(C(F)(F)F)cc3)c(O)cc(O)c12 [compound 14, 2-(3,4-Dihydroxyphenyl)-8-(4-(trifluoromethyl)anilino)-5,7-dihydroxy-4H–1-benzopyran-4-one] | antagonism (≥2 indicates antagonism) | – | > 200 | 29.9 ± 1.4 (≈ 13.3 µg/mL) | 14.4 ± 0.1 (≈ 6.41 µg/mL) | – | 2.07 ± 0.11 | – | > 200 | 15.3 ± 0.7 | 12.4 ± 0.4 | > 25 | 24 ± 0.1 | > 12.5 | – | – | significantly decreased the antioxidant activity |
| COc1ccc(Nc2c(O)cc(O)c3c(=O)cc(-c4ccc(O)c(O)c4)oc23)cc1 [compound 12, 2-(3,4-Dihydroxyphenyl)-8-(4-methoxyanilino)-5,7-dihydroxy-4H–1-benzopyran-4-one] | synergy (Fractional Inhibitory Concentration Index (FIC) < 0.5 indicates synergism) | synergy (Fractional Inhibitory Concentration Index (FIC) < 0.5 indicates synergism) | 31.4 ± 1.0 (≈ 12.8 µg/mL) | 20.0 ± 0.6 (≈ 8.15 µg/mL) | 53.6 ± 0.5 (≈ 21.8 µg/mL) | – | 0.37 ± 0.01 | 0.34 ± 0.01 | 91 ± 0.9 (≈ 37.1 µg/mL) | 54 ± 0.1 | 15.3 ± 0.5 | 48.3 ± 1.3 | 112 ± 1.2 | 3.4 ± 0.1 | – | – | – |
| O=c1cc(-c2ccc(O)c(O)c2)oc2c(Nc3ccc(F)cc3)c(O)cc(O)c12 [compound 11, 2-(3,4-Dihydroxyphenyl)-8-(4-fluoroanilino)-5,7-dihydroxy-4H–1-benzopyran-4-one] | – | – | > 200 | 28.0 ± 0.5 (≈ 11.1 µg/mL) | 32.9 ± 0.6 (≈ 13 µg/mL) | – | 0.85 ± 0.03 | – | > 200 | 42 ± 1.2 | 7.2 ± 0.3 | > 25 | 38 ± 1.2 | 2.9 ± 0.2 | – | same ability to inhibit IL-6 production as luteolin | – |
